The values below come from publication PMC7021728, “Structure of the agonist 12–HHT in its BLT2 receptor-bound state” (Scientific Reports, 2020).

Residue numbers refer to the chain shown, from its start. pEC50, pKd: −log10 of the molar value. Where two headings read alike, the source gives them in different places.

One test has as its system BLT1. More on the design: method as in PMID 18378794. As to conditions: in words; cited from earlier work.
The target in a further test is T1, BLT2 S174^ECL2A (Homo sapiens, UniProt Q9NPC1, S174A).
T1 construct: made in house
T1 sequence (Q9NPC1 1-358 S174A): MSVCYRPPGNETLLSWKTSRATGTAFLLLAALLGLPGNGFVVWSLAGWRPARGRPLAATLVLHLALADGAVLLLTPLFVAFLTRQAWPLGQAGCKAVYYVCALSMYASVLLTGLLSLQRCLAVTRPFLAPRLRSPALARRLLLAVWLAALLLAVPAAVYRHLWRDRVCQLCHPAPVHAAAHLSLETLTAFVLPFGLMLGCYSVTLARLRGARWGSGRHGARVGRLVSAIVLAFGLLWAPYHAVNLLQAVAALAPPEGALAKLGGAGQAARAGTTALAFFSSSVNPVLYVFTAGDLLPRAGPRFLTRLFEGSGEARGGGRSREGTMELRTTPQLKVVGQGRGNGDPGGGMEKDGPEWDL
In words: Gi protein activation catalyzed by BLT2 mutant. It counts as biochemical. As to conditions: for pEC50: read-out: EC50. The protocol: (§1) All mutations were introduced in the wild-type BLT2 receptor by PCR-mediated mutagenesis using the QuickChange multisite-directed mutagenesis kit (Stratagene) and the wild-type BLT2 construct as a template. Mutations were confirmed by nucleotide sequencing.
(§2) Gαi2 and Gβ1γ2 were prepared as previously described. Briefly, agonist-dependent functional coupling of the purified receptor to Gαi2β1γ2 was assessed through the rate of GTPγS binding at increasing agonist concentrations determined by monitoring the relative increase in the intrinsic fluorescence ( λexcitation=300nm , λemission=345nm ) of Gαi2 (200 nM of purified G protein) in the presence of BLT2 (20 nM) in buffer containing 10 mM MOPS, pH 7.2, 130 mM NaCl, and 2 mM MgCl2 at 15 °C after the addition of 10 μM GTPγS. The data were normalized to the fluorescence maximum obtained in the presence of saturating concentrations in 12–HHT (10 μM).

Another test addresses T2, BLT2 R270^7.35A (Homo sapiens, UniProt Q9NPC1, R270A).
T2 construct: made in house
T2 sequence (Q9NPC1 1-358 R270A): T1 sequence (Q9NPC1 1-358 S174A) with A174S, R270A
Put plainly: Gi protein activation catalyzed by BLT2 mutant. It is filed as biochemical. As to conditions: construct R270^7.35A. The protocol: as §1, §2

A further test addresses T3, wild-type BLT2 receptor (Homo sapiens, UniProt Q9NPC1).
T3 construct: made in house
T3 sequence (Q9NPC1 1-358): T1 sequence (Q9NPC1 1-358 S174A) with A174S
In words: Gi protein activation catalyzed by purified BLT2 (rate of GTPγS binding, Gαi2 intrinsic fluorescence). It counts as biochemical. The protocol: as §2
Background: Binding of GTPγS marks nucleotide exchange on a G protein.

The target in the next test is purified BLT2 receptor. Further details: method as in PMID 21688157. As to conditions: cited from earlier work.
A further test addresses T4, BLT2 Q267^7.32A (Homo sapiens, UniProt Q9NPC1, Q267A).
T4 construct: made in house
T4 sequence (Q9NPC1 1-358 Q267A): T1 sequence (Q9NPC1 1-358 S174A) with A174S, Q267A
In words: Gi protein activation catalyzed by BLT2 mutant. It counts as biochemical. The procedure: All mutations were introduced in the wild-type BLT2 receptor by PCR-mediated mutagenesis using the QuickChange multisite-directed mutagenesis kit (Stratagene) and the wild-type BLT2 construct as a template. Mutations were confirmed by nucleotide sequencing. […] Gαi2 and Gβ1γ2 were prepared as previously described. […] The data were normalized to the fluorescence maximum obtained in the presence of saturating concentrations in 12–HHT (10 μM).

Test [1] concerns BLT2. Further details: method as in PMID 18378794. As to conditions: cited from earlier work.
The subject of test [2] is BLT2. More on the design: method as in PMID 18378794. As to conditions: membrane fractions of CHO transfected by BLT2; cited from earlier work.

Consider `CCCCC[C@H](O)/C=C/C=C/C/C=C\CCCC(=O)O` [12–HHT, 12S–hydroxyheptadeca-5Z,8E,10E-trienoic acid], for which the “binding to BLT1” value with BLT1 is “does not bind”. Further, the pEC50 at BLT2 S174^ECL2A (S174^ECL2A) is 6.53; at BLT2 S174^ECL2A (construct S174^ECL2A), 6.53; at BLT2 R270^7.35A it was 6.63; on wild-type BLT2 receptor (construct wt, Gi protein activation) it was 7.68; on wild-type BLT2 receptor (wild-type), 7.68; at BLT2 Q267^7.32A (construct Q267^7.32A), 7.48. The EC50 at BLT2 S174^ECL2A (construct S174^ECL2A, given as LogEC50 (negative sign), read-out: LogEC50 (converted)) was 289 nM. Further, the pKd on purified BLT2 receptor (purified BLT2 associated with amphipols in solution, in vitro) is approximately 7.22. Also, the “bound time compared with LTB4 (in vitro off-rate constant measurements)” value with purified BLT2 receptor (ratio 12–HHT / LTB4) is listed as 3.6 times. Further, the “effect of the mutation on ligand binding” value at BLT2 Q267^7.32A (Q267^7.32A compared to wild-type, in words) is “no significant change in ligand binding”. Moreover, the “affinity for BLT2 compared to LTB4” value with BLT2 [1] (in cellulo measurements) is “about one order of magnitude”. Further, the “half maximal inhibitory concentration (IC50) compared to LTB4” value with BLT2 [1] (membrane fractions of CHO transfected by BLT2) is given as “about one order of magnitude lower than LTB4”. For the same compound, the “half maximal effective concentration (EC50) compared to LTB4” value with BLT2 [2] is given as “about one order of magnitude lower than LTB4”.

As usually defined, the pEC50 is the negative decadic logarithm of the EC50, by convention in mol/L. A word on the pKd: it is the Kd on a negative log10 scale, so that one unit is a factor of ten.
